Here are results for 13 molecules from US11149031B2, “Substituted N-(3-fluoropropyl)-pyrrolidine compounds, processes for their preparation and therapeutic uses thereof” (SANOFI, priority 2016, dated 2021).

Assay [1] has as its target His6-ERα298-554 WT (ERα ligand-binding domain) (Homo sapiens (Human), UniProt P03372). The experiment in a line: Test A: biochemical antagonist activity, LanthaScreen TR-FRET ERα coactivator assay, WT. The conditions noted are these: read-out: Antagonism WT IC50. In short, it runs like this:
(§1)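 Compounds were added to receptor LBD (0.5 nM), terbium-labelled His6 antibody (0.5 nM), PGC1a coactivator peptide (250 nM) and estradiol at 3 nM or 10 nM. After incubating overnight at room temperature, the 520:495 nm ratio gave IC50 values by four-parameter logistic regression.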

The target of assay [2] is His6-ERα298-554 D538G mutant (ERα ligand-binding domain) (Homo sapiens (Human), UniProt P03372, D538G). Put plainly: Test A: biochemical antagonist activity, LanthaScreen TR-FRET ERα coactivator assay, D538G mutant. As to conditions: read-out: Antagonism D538G IC50. In short, it runs like this: as §1
Sequence of His6-ERα298-554 D538G mutant (ERα ligand-binding domain) (P03372 298-554 D538G): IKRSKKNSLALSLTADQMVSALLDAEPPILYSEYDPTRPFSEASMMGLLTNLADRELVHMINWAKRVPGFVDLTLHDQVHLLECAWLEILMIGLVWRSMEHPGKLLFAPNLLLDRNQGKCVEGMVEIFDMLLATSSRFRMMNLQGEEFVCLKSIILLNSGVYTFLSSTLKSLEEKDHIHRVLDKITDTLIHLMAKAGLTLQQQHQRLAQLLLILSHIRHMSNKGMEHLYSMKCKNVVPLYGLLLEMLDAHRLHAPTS
Assay [3] has as its system MCF7 cells expressing mutant estrogen receptor Tyr 537 Ser. Put plainly: Test B: cell proliferation/viability assay (CellTiter-Glo) on MCF7 Tyr 537 Ser mutant. The format is cell-based. The conditions noted are these: Homo sapiens, MCF7 cells expressing ER Tyr 537 Ser mutant, 7 days of compound exposure, read-out: proliferation MCF7 Y537S IC50. An outline of the steps:
(§2)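 Mutant lines are MCF7 transfected with ER mutants and selected for estradiol-independent growth. Cells in phenol red-free MEM with 5% charcoal-stripped FBS received 9-point 1:5 dilutions (3-0.000001 μM) for 7 days; CellTiter-Glo luminescence, % viability relative to untreated after background subtraction.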
A general note: ATP-based viability assays read luminescence as a measure of living cells.

For assay [4], the system named is MCF7 cells expressing mutant estrogen receptor Asp 538 Gly. The experiment in a line: Test B: cell proliferation/viability assay (CellTiter-Glo) on MCF7 Asp 538 Gly mutant. The format is cell-based. As to conditions: Homo sapiens, MCF7 cells expressing ER Asp 538 Gly mutant, 7 days of compound exposure, read-out: proliferation MCF7 D538G IC50. In short, it runs like this:
as §2

The test system of assay [5] is MCF7 cells (breast tumor cells) WT. The experiment in a line: Test B: cell proliferation/viability assay (CellTiter-Glo) on MCF7 WT. In kind it is cell-based. As to conditions: 7 days of compound exposure. An outline of the steps: as §2
A further assay concerns the target ERα in MCF7 cells (Homo sapiens (Human), UniProt P03372). The experiment in a line: Test C: estrogen receptor degradation activity, ERα in cell western assay in MCF7 cells. In kind it is cell-based. As to conditions: for DC50: 4 hours post compound addition, ERα in cell western, read-out: Degradation IC50; for % Degradation at 3 μM: 4 hours, relative to fulvestrant. In short, it runs like this:
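MCF7 cells in phenol-red-free medium with 5% charcoal-stripped FBS received compound (9-point 1:5, 3-0.000018 μM) for 4 h, then were fixed. ERα immunostained (Alexa 488) and normalised to DNA (Syto-64), read as integrated fluorescence on an Acumen scanner.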

Assay [6] has as its target His6-ERα298-554 Y537S mutant (ERα ligand-binding domain) (Homo sapiens (Human), UniProt P03372, Y537S). Put plainly: Test A: biochemical antagonist activity, LanthaScreen TR-FRET ERα coactivator assay, Y537S mutant. As to conditions: read-out: Antagonism Y537S IC50. An outline of the steps: as §1
(In general: Time-resolved FRET reads energy transfer from a long-lived donor to a nearby acceptor.)

The mark [7] stands for this setting: asterisk (*): protocol using 10 nM estradiol.

pIC50: −log10 of the molar value. Like-named read-outs stand apart in the source and are kept apart here. A value given as a limit tells only on which side of the number the result lay.

Sequence of His6-ERα298-554 Y537S mutant (ERα ligand-binding domain) (P03372 298-554 Y537S): as the sequence (P03372 298-554 D538G) above, with Y240S, G241D counted along it
Sequence of His6-ERα298-554 WT (ERα ligand-binding domain) (P03372 298-554): as the sequence (P03372 298-554 D538G) above, with G241D counted along it
Sequence of ERα in MCF7 cells (P03372 whole entry): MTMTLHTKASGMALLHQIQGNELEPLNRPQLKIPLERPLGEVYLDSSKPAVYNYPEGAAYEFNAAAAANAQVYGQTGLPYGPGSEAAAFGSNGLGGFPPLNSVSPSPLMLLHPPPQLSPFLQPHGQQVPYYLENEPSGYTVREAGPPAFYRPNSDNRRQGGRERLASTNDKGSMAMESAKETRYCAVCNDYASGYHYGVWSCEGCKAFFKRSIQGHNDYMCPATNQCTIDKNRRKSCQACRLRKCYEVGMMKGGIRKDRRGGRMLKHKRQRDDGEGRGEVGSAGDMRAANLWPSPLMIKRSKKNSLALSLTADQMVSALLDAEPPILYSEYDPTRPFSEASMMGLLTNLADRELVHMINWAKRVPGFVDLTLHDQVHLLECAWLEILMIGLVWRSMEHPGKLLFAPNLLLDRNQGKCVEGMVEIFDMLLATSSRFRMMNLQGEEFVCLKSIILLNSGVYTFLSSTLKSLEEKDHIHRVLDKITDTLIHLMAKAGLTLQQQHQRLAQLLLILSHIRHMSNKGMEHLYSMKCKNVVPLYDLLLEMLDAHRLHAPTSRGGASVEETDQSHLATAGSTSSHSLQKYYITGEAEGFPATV

Take `CC1(C)Cc2cc(C3=C(c4ccc(O[C@H]5CCN(CCCF)C5)cc4)c4ccc(O)cc4SC3)ccc2O1` [Example 32, 3-(2,2-dimethyl-3H-benzofuran-5-yl)-4-[4-[(3S)-1-(3-fluoropropyl)pyrrolidin-3-yl]oxyphenyl]-2H-thiochromen-7-ol]: the pIC50 in assay [1] (setting [7]) was 7.72; in assay [2] (setting [7]), 6.50; in assay [3] (MCF7, 168 h), 8.22; in assay [4] (MCF7, 168 h) it was 9.00; in assay [5] (Homo sapiens, MCF7, 168 h), 9.40; in assay [6] (setting [7]), 6.77. The DC50 on ERα in MCF7 cells turned out to be 0.8 nM. For the same molecule, the “% Degradation at 3 μM” value on ERα in MCF7 cells stood at 87%.

`Oc1ccc2c(c1)SCCC(c1ccc3c(c1)OC(F)(F)O3)=C2c1ccc(O[C@H]2CCN(CCCF)C2)cc1` [Example 193, 4-(2,2-difluoro-1,3-benzodioxol-5-yl)-5-[4-[(3S)-1-(3-fluoropropyl)pyrrolidin-3-yl]oxyphenyl]-2,3-dihydro-1-benzothiepin-8-ol]: the pIC50 in assay [1] (setting [7]) was 9.00; in assay [2] (setting [7]), 7.60; in assay [3] (MCF7, 168 h) it was 8.30; in assay [4] (MCF7, 168 h), 9.30; in assay [5] (Homo sapiens, MCF7, 168 h) it was 9.52; in assay [6] (setting [7]), 7.70. In addition, at ERα in MCF7 cells, the DC50 came out at 0.2 nM. The “% Degradation at 3 μM” value at ERα in MCF7 cells turned out to be 91%.

Turning to `CCOc1ccc(C2=C(c3ccc(O[C@H]4CCN(CCCF)C4)cc3)c3ccc(O)cc3SCC2)c(F)c1Cl` [Example 221, 4-(3-chloro-4-ethoxy-2-fluoro-phenyl)-5-[4-[(3S)-1-(3-fluoropropyl)pyrrolidin-3-yl]oxyphenyl]-2,3-dihydro-1-benzothiepin-8-ol], the pIC50 was 7.96 in assay [1] (setting [7]); 6.58 in assay [2] (setting [7]); 8.10 in assay [3] (MCF7, 168 h); 9.22 in assay [4] (MCF7, 168 h); 9.30 in assay [5] (Homo sapiens, MCF7, 168 h); 6.88 in assay [6] (setting [7]). Moreover, the DC50 on ERα in MCF7 cells was found to be 0.2 nM. The “% Degradation at 3 μM” value on ERα in MCF7 cells amounted to 84%.

Regarding `NS(=O)(=O)c1ccc(C2=C(c3ccc(O[C@H]4CCN(CCCF)C4)cc3)c3ccc(O)cc3SC2)cc1` [Example 42, 4-[4-[4-[(3S)-1-(3-fluoropropyl)pyrrolidin-3-yl]oxyphenyl]-7-hydroxy-2H-thiochromen-3-yl]benzenesulfonamide], the pIC50 is 6.17 in assay [1] (setting [7]); less than 5.40 in assay [2] (setting [7]); 6.09 in assay [3] (MCF7, 168 h); 7.51 in assay [4] (MCF7, 168 h); 7.34 in assay [5] (Homo sapiens, MCF7, 168 h); less than 5.40 in assay [6] (setting [7]). For the same molecule, the DC50 at ERα in MCF7 cells amounted to 11 nM. In addition, on ERα in MCF7 cells, the “% Degradation at 3 μM” value is given as 89%.

For the molecule `CCOc1ccc(C2=C(c3ccc(O[C@H]4CCN(CCCF)C4)cc3)c3ccc(O)cc3SCC2)cc1F` [Example 185, 4-(4-ethoxy-3-fluoro-phenyl)-5-[4-[(3S)-1-(3-fluoropropyl)pyrrolidin-3-yl]oxyphenyl]-2,3-dihydro-1-benzothiepin-8-ol], the pIC50 is 8.54 in assay [1] (protocol with 3 nM estradiol); 6.98 in assay [2] (protocol with 3 nM estradiol); 8.22 in assay [3] (MCF7, 168 h); 9.00 in assay [4] (MCF7, 168 h); 9.40 in assay [5] (Homo sapiens, MCF7, 168 h); 7.19 in assay [6] (protocol with 3 nM estradiol). Also, the DC50 at ERα in MCF7 cells was found to be 0.7 nM. For the same molecule, the “% Degradation at 3 μM” value on ERα in MCF7 cells came to 84%.

For `Cc1ccc(C2=C(c3ccc(O[C@H]4CCN(CCCF)C4)cc3)c3ccc(O)cc3SC2)c(Cl)n1` [Example 56, 3-(2-chloro-6-methyl-3-pyridyl)-4-[4-[(3S)-1-(3-fluoropropyl)pyrrolidin-3-yl]oxyphenyl]-2H-thiochromen-7-ol], the pIC50 in assay [1] (setting [7]) was 7.43; in assay [2] (setting [7]), 6.14; in assay [3] (MCF7, 168 h), 7.85; in assay [4] (MCF7, 168 h), 9.15; in assay [5] (Homo sapiens, MCF7, 168 h), 9.22; in assay [6] (setting [7]), 6.45. For the same molecule, at ERα in MCF7 cells, the DC50 was found to be 0.2 nM. The “% Degradation at 3 μM” value on ERα in MCF7 cells is reported as 86%.

Turning to `Oc1ccc2c(c1)C(c1ccc(N[C@H]3CCN(CCCF)C3)cc1)=C(c1ccc(F)cc1Cl)CC2` [Example 84, 7-(2-chloro-4-fluoro-phenyl)-8-[4-[[(3S)-1-(3-fluoropropyl)pyrrolidin-3-yl]amino]phenyl]-5,6-dihydronaphthalen-2-ol], the pIC50 is 7.52 in assay [1] (protocol with 3 nM estradiol); 5.76 in assay [2] (protocol with 3 nM estradiol); 8.22 in assay [3] (MCF7, 168 h); 8.70 in assay [4] (MCF7, 168 h); 9.40 in assay [5] (Homo sapiens, MCF7, 168 h); 6.02 in assay [6] (protocol with 3 nM estradiol). Moreover, the DC50 on ERα in MCF7 cells stood at 2 nM. Moreover, on ERα in MCF7 cells, the “% Degradation at 3 μM” value was found to be 78%.

Turning to `Oc1ccc2c(c1)SCC(c1ccc(Cl)nc1Cl)=C2c1ccc(O[C@H]2CCN(CCCF)C2)cc1` [Example 50, 3-(2,6-dichloro-3-pyridyl)-4-[4-[(3S)-1-(3-fluoropropyl)pyrrolidin-3-yl]oxyphenyl]-2H-thiochromen-7-ol], the pIC50 in assay [1] (setting [7]) is 7.14; in assay [2] (setting [7]) it was 5.81; in assay [3] (MCF7, 168 h), 8.15; in assay [4] (MCF7, 168 h), 8.70; in assay [5] (Homo sapiens, MCF7, 168 h), 9.22; in assay [6] (setting [7]) it was 5.93. Further, the DC50 on ERα in MCF7 cells turned out to be 0.2 nM. In addition, on ERα in MCF7 cells, the “% Degradation at 3 μM” value is given as 84%.

With `Cc1ccc(C2=C(c3ccc(O[C@H]4CCN(CCCF)C4)nc3)c3ccc(O)cc3SC2)c(F)c1` [Example 78, 3-(2-fluoro-4-methyl-phenyl)-4-[6-[(3S)-1-(3-fluoropropyl)pyrrolidin-3-yl]oxy-3-pyridyl]-2H-thiochromen-7-ol], the pIC50 in assay [1] (setting [7]) was 9.00; in assay [2] (setting [7]) it was 7.54; in assay [3] (MCF7, 168 h), 8.40; in assay [4] (MCF7, 168 h) it was 9.05; in assay [5] (Homo sapiens, MCF7, 168 h), 9.52; in assay [6] (setting [7]) it was 7.82. Also, at ERα in MCF7 cells, the DC50 was determined as 0.2 nM. The “% Degradation at 3 μM” value on ERα in MCF7 cells amounted to 88%.

As to `COc1ccc(C2=C(c3ccc(O[C@H]4CCN(CCCF)C4)cc3)c3ccc(O)cc3OCC2)c(F)c1` [Example 121, 4-(2-fluoro-4-methoxy-phenyl)-5-[4-[(3S)-1-(3-fluoropropyl)pyrrolidin-3-yl]oxyphenyl]-2,3-dihydro-1-benzoxepin-8-ol], the pIC50 was 8.70 in assay [1] (protocol with 3 nM estradiol); 7.57 in assay [2] (protocol with 3 nM estradiol); 8.52 in assay [3] (MCF7, 168 h); 9.00 in assay [4] (MCF7, 168 h); 9.52 in assay [5] (Homo sapiens, MCF7, 168 h); 7.89 in assay [6] (protocol with 3 nM estradiol). Besides, the DC50 at ERα in MCF7 cells turned out to be 0.2 nM. Besides, the “% Degradation at 3 μM” value at ERα in MCF7 cells is on record as 90%.

For the molecule `Oc1ccc2c(c1)CCCC(c1ccc(OC(F)(F)F)cc1F)=C2c1ccc(N[C@H]2CCN(CCCF)C2)cc1` [Example 88, 5-[4-[[(3S)-1-(3-fluoropropyl)pyrrolidin-3-yl]amino]phenyl]-6-[2-fluoro-4-(trifluoromethoxy)phenyl]-8,9-dihydro-7H-benzo[7]annulen-2-ol], the pIC50 is 7.92 in assay [1] (setting [7]); 6.53 in assay [2] (setting [7]); 8.52 in assay [3] (MCF7, 168 h); 9.22 in assay [4] (MCF7, 168 h); 9.52 in assay [5] (Homo sapiens, MCF7, 168 h); 6.80 in assay [6] (setting [7]). Moreover, on ERα in MCF7 cells, the DC50 was determined as 0.2 nM. The “% Degradation at 3 μM” value on ERα in MCF7 cells is given as 88%.

For the molecule `Cc1ccc(C2=C(c3ccc(O[C@H]4CCN(CCCF)C4)cc3)c3ccc(O)cc3[S+]([O-])C2)c(F)c1` (single isomer, unassigned) [Example 70], the pIC50 was 5.78 in assay [1] (setting [7]); less than 5.40 in assay [2] (setting [7]); 6.32 in assay [3] (MCF7, 168 h); 7.01 in assay [4] (MCF7, 168 h); 7.19 in assay [5]; less than 5.40 in assay [6] (setting [7]). Further, the DC50 on ERα in MCF7 cells is 25 nM. On ERα in MCF7 cells, the “% Degradation at 3 μM” value was 73%.

For the molecule `Cc1ccc(C2=C(c3ccc(O[C@H]4CCN(CCCF)C4)cc3)c3ccc(OP(=O)(O)O)cc3SC2)c(F)c1` [Example 48, [3-(2-fluoro-4-methyl-phenyl)-4-[4-[(3S)-1-(3-fluoropropyl)pyrrolidin-3-yl]oxyphenyl]-2H-thiochromen-7-yl]dihydrogen phosphate], the pIC50 in assay [1] (setting [7]) is less than 5.40; in assay [2] (setting [7]) it was less than 5.40; in assay [3] (168 h), 7.77; in assay [4] (168 h) it was 8.22; in assay [5] (Homo sapiens, 168 h) it was 9.00; in assay [6] (setting [7]), less than 5.40. For the same molecule, the DC50 on ERα in MCF7 cells was 0.8 nM. On ERα in MCF7 cells, the “% Degradation at 3 μM” value came out at 89%.
